# Results as given in the supplement of paper PMC10307832.
# Key:
# Test in all cases: relative viability (nuclei count vs DMSO), 5 days (fraction); higher = more cells survive
# LCLC-97TM1 = test system: LCLC-97TM1
# Procedure, shortened: (§1)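 After 5 days of treatment, lung cancer cells in 1536-well plates were fixed and stained in a single step (final 0.05% Triton X-100, 1% formaldehyde, 1 ug/ml Hoechst) and their nuclei counted on 4× images. Treatment had been applied by pin tool the day after seeding as one drug alone or as a fixed anchor-drug dose with five library-drug doses (not always all listed) in √10 steps. Relative viability is the nuclei count of treated wells divided by that of vehicle wells, and values are medians of duplicate plates.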
# NCI-H1734 = test system: NCI-H1734
# Procedure, shortened: as §1
# SW 900 = test system: SW 900
# Procedure, shortened: as §1
# SW 1573 = test system: SW 1573
# Procedure, shortened: as §1
# LC-2-ad = test system: LC-2-ad
# Procedure, shortened: as §1
# NCI-H1563 = test system: NCI-H1563
# Procedure, shortened: as §1
# NCI-H2023 = test system: NCI-H2023
# Procedure, shortened: as §1
# HCC-44 = test system: HCC-44
# Procedure, shortened: as §1
# NCI-H520 = test system: NCI-H520
# Procedure, shortened: as §1
# UMC-11 = test system: UMC-11
# Procedure, shortened: as §1
# COR-L 105 = test system: COR-L 105
# Procedure, shortened: as §1
# NCI-H2342 = test system: NCI-H2342
# Procedure, shortened: as §1
# NCI-H1792 = test system: NCI-H1792
# Procedure, shortened: as §1
# NCI-H838 = test system: NCI-H838
# Procedure, shortened: as §1
# A-427 = test system: A-427
# Procedure, shortened: as §1
# CAL-12T = test system: CAL-12T
# Procedure, shortened: as §1
# NCI-H1915 = test system: NCI-H1915
# Procedure, shortened: as §1
# EPLC-272H = test system: EPLC-272H
# Procedure, shortened: as §1
# NCI-H1975 = test system: NCI-H1975
# Procedure, shortened: as §1
# HCC-15 = test system: HCC-15
# Procedure, shortened: as §1
# NCI-H1395 = test system: NCI-H1395
# Procedure, shortened: as §1
# NCI-H2347 = test system: NCI-H2347
# Procedure, shortened: as §1
# NCI-H2405 = test system: NCI-H2405
# Procedure, shortened: as §1
structure (smiles),measurement,setting,value
CN1CCN(CCOc2cc(OC3CCOCC3)c3c(Nc4c(Cl)ccc5c4OCO5)ncnc3c2)CC1 [Saracatinib] + COc1cccc2cc(-c3nc([C@H]4CC[C@H](C(=O)O)CC4)n4ncnc(N)c34)[nH]c12 [OSI-027] (partner 0.5 µM),relative viability,LCLC-97TM1; first compound 0.02 µM,0.696
same,relative viability,LCLC-97TM1; first compound 0.2 µM,0.221
same,relative viability,LCLC-97TM1; first compound 0.6325 µM,0.7
same,relative viability,LCLC-97TM1; first compound 2 µM,0.505
same,relative viability,NCI-H1734; first compound 0.02 µM,0.635
same,relative viability,NCI-H1734; first compound 0.6325 µM,0.571
same,relative viability,NCI-H1734; first compound 2 µM,0.507
same,relative viability,SW 900; first compound 0.02 µM,0.616
same,relative viability,SW 900; first compound 0.2 µM,0.559
same,relative viability,SW 900; first compound 0.6325 µM,0.575
same,relative viability,SW 900; first compound 2 µM,0.443
same,relative viability,SW 1573; first compound 0.02 µM,0.624
same,relative viability,SW 1573; first compound 0.2 µM,0.55
same,relative viability,SW 1573; first compound 0.6325 µM,0.667
same,relative viability,SW 1573; first compound 2 µM,0.456
same,relative viability,LC-2-ad; first compound 0.02 µM,0.844
same,relative viability,LC-2-ad; first compound 0.2 µM,0.804
same,relative viability,LC-2-ad; first compound 0.6325 µM,0.881
same,relative viability,LC-2-ad; first compound 2 µM,0.728
same,relative viability,NCI-H1563; first compound 0.02 µM,0.703
same,relative viability,NCI-H1563; first compound 0.2 µM,0.663
same,relative viability,NCI-H1563; first compound 0.6325 µM,0.645
same,relative viability,NCI-H1563; first compound 2 µM,0.711
same,relative viability,NCI-H2023; first compound 0.02 µM,0.473
same,relative viability,NCI-H2023; first compound 0.2 µM,0.394
same,relative viability,NCI-H2023; first compound 0.6325 µM,0.316
same,relative viability,NCI-H2023; first compound 2 µM,0.273
same,relative viability,HCC-44; first compound 0.02 µM,0.483
same,relative viability,HCC-44; first compound 0.2 µM,0.522
same,relative viability,HCC-44; first compound 0.6325 µM,0.592
same,relative viability,HCC-44; first compound 2 µM,0.543
same,relative viability,NCI-H520; first compound 0.02 µM,0.191
same,relative viability,NCI-H520; first compound 0.6325 µM,0.262
same,relative viability,NCI-H520; first compound 2 µM,0.176
same,relative viability,UMC-11; first compound 0.02 µM,0.503
same,relative viability,UMC-11; first compound 0.6325 µM,0.453
same,relative viability,UMC-11; first compound 2 µM,0.339
same,relative viability,COR-L 105; first compound 0.02 µM,0.837
same,relative viability,COR-L 105; first compound 0.2 µM,0.628
same,relative viability,COR-L 105; first compound 0.6325 µM,0.566
same,relative viability,COR-L 105; first compound 2 µM,0.221
same,relative viability,NCI-H2342; first compound 0.02 µM,0.689
same,relative viability,NCI-H2342; first compound 0.2 µM,0.702
same,relative viability,NCI-H2342; first compound 0.6325 µM,0.64
same,relative viability,NCI-H2342; first compound 2 µM,0.637
same,relative viability,NCI-H1792; first compound 0.02 µM,0.771
same,relative viability,NCI-H1792; first compound 0.2 µM,0.462
same,relative viability,NCI-H1792; first compound 0.6325 µM,0.809
same,relative viability,NCI-H1792; first compound 2 µM,0.558
same,relative viability,NCI-H838; first compound 0.02 µM,0.348
same,relative viability,NCI-H838; first compound 0.2 µM,0.302
same,relative viability,NCI-H838; first compound 0.6325 µM,0.401
same,relative viability,NCI-H838; first compound 2 µM,0.235
same,relative viability,A-427; first compound 0.02 µM,0.506
same,relative viability,A-427; first compound 0.2 µM,0.409
same,relative viability,A-427; first compound 0.6325 µM,0.445
same,relative viability,A-427; first compound 2 µM,0.493
same,relative viability,CAL-12T; first compound 0.02 µM,0.734
same,relative viability,CAL-12T; first compound 0.2 µM,0.677
same,relative viability,CAL-12T; first compound 0.6325 µM,1.08
same,relative viability,CAL-12T; first compound 2 µM,0.57
same,relative viability,NCI-H1915; first compound 0.02 µM,0.623
same,relative viability,NCI-H1915; first compound 0.2 µM,0.408
same,relative viability,NCI-H1915; first compound 0.6325 µM,0.587
same,relative viability,NCI-H1915; first compound 2 µM,0.474
same,relative viability,EPLC-272H; first compound 0.02 µM,0.304
same,relative viability,EPLC-272H; first compound 0.2 µM,0.27
same,relative viability,EPLC-272H; first compound 0.6325 µM,0.348
same,relative viability,EPLC-272H; first compound 2 µM,0.278
same,relative viability,NCI-H1975; first compound 0.02 µM,0.678
same,relative viability,NCI-H1975; first compound 0.2 µM,0.585
same,relative viability,NCI-H1975; first compound 0.6325 µM,0.686
same,relative viability,NCI-H1975; first compound 2 µM,0.403
same,relative viability,HCC-15; first compound 0.02 µM,0.806
same,relative viability,HCC-15; first compound 0.2 µM,0.586
same,relative viability,HCC-15; first compound 0.6325 µM,0.708
same,relative viability,HCC-15; first compound 2 µM,0.605
same,relative viability,NCI-H1395; first compound 0.02 µM,0.618
same,relative viability,NCI-H1395; first compound 0.2 µM,0.613
same,relative viability,NCI-H1395; first compound 0.6325 µM,0.583
same,relative viability,NCI-H1395; first compound 2 µM,0.485
same,relative viability,NCI-H2347; first compound 0.02 µM,0.348
same,relative viability,NCI-H2347; first compound 0.2 µM,0.373
same,relative viability,NCI-H2347; first compound 0.6325 µM,0.406
same,relative viability,NCI-H2347; first compound 2 µM,0.306
same,relative viability,NCI-H2405; first compound 0.02 µM,0.647
same,relative viability,NCI-H2405; first compound 0.2 µM,0.62
same,relative viability,NCI-H2405; first compound 0.6325 µM,0.649
same,relative viability,NCI-H2405; first compound 2 µM,0.38
